Patent US8017125B2, “Copolymers for suppression of autoimmune diseases, and methods of use” (President and Fellows of Harvard College, priority 2001, dated 2011)
Each block holds one substance with its values, some of them ahead of it.

Experiments:
HLA-DR-2 molecules = target: T1, HLA-DR-2 molecules (Homo sapiens, UniProt P01903+P01911); experiment: Competitive binding of biotinylated MBP 86-100 to HLA-DR-2 molecules; details: biotinylated MBP 86-100 0.13 μM, 40 hr at 37° C.
T1 construct: Recombinant water-soluble HLA-DR-2 molecules were incubated with biotinylated MBP 86-100; Soluble HLA-DR-2 molecules were expressed in Drosophila S2 cells; made in house; host or cells: Drosophila S2 cells
Procedure: Protein expression and purification. Soluble HLA-DR-2 molecules were expressed in Drosophila S2 cells and purified as described (Kalandadze, A. et al. 1996. J. Biol. Chem. 271:20156-20162). Cells were grown at 26° C. in roller bottles in ExCell 401 medium (JRH Biosciences, Lenexa, Kans.) supplemented with 0-5% fetal bovine serum (Sigma Chemicals, St. Louis, Mo.). Cells were harvested 4-5 days after induction by 1 mM CuSO4. Supernatant from harvested cells was sequentially passed through Protein A, Protein G and Protein A-LB3.1 columns, followed by elution of the bound HLA-DR with 50 mM 3-[cyclohexylamino]-1-propanesulfonic acid (CAPS), pH 11.5, and neutralized with 200 mM phosphate (pH 6.0). Proteins were concentrated on a Centriprep 10 membrane (Amicon, Beverly, Mass.).
(A). Solutions. The solutions used in this assay are the following: binding buffer is 20 mM 2-[N-morpholino]ethanesulfonic acid (MES), 140 mM NaCl, 0.05% NaN3, pH 5.0, unless otherwise specified; PBS is 150 mM sodium chloride, 7.5 mM sodium phosphate, dibasic, 2.5 mM sodium phosphate, monobasic, pH 7.2; TBS is 137 mM sodium chloride, 25 mM Tris pH 8.0, 2.7 mM potassium chloride; TTBS is TBS plus 0.05% Tween-20. (B). […] Bound peptide-biotin was detected using streptavidin-conjugated alkaline phosphatase, as follows. […] Absorbance at 410 nm was monitored by a microplate reader (model MR4000; Dynatech, Chantilly, Va.).

[1] = tested on: 2E12 T cell clone (MBP 84-102-specific hybridoma from HLA-DR-2-transgenic mice); experiment: Antigen presentation assay, 2E12 T cell clone; format: cell-based, mouse; details: L466 APC, MBP 85-99 4 μM (FIG. 1A)
Source text: (§1) Antigen presentation assays.

[2] = tested on: Hy1B clone (MBP 84-102-specific TCR transfectant); experiment: Antigen presentation assay, Hy1B T cell clone; format: cell-based; details: MGAR APC, MBP 85-99 12.5 μM (FIG. 1C)
Source text: as §1

[3] = tested on: H-2s-restricted PLP 139-151-specific T cell hybridoma hPLP/1; experiment: Antigen presentation assay, hPLP/1 hybridoma; format: cell-based, mouse; details: SJL/J splenocytes, PLP 139-151 24 μM, copolymer 28 μM (FIG. 2B)
Source text: as §1

[4] = tested on: EAE induced by WSCH in SJL/J mice; experiment: Suppression of EAE induced by WSCH; format: in vivo; details: for Incidence (mice with clinical signs of EAE / total immunized mice): SJL/J mice coinjected s.c. with 500 μg WSCH and 500 μg copolymer, observed 40 days
Procedure: (§2) Induction and suppression of EAE. […] Mice were scored daily for clinical signs of EAE on a scale 1-5, according to the severity of disease symptoms as previously described (Santambrogio, L. et al. 1993. J. Immunol. 151: 1116). For determination of suppression of EAE, each copolymer (500 μg/mouse) was mixed and injected with the encephalitogenic emulsion as described above.
To find out whether VEAK and FEAK random copolymers affected the clinical course of EAE in SJL/J mice, a number of in vivo experiments were performed. The protocol for disease induction was subcutaneous injection to co-immunize with both WSCH (500 μg) and each copolymer (500 μg), similar to the protocol of previous studies of suppression of EAE by Cop1 (Teitelbaum, D. et al. 1996. J. Neuroimmunol. 64:209-217). Following disease induction, mice were observed daily for 40 days for appearance of typical clinical signs of EAE (Table 1).

[5] = tested on: EAE induced by PLP 139-151 in SJL/J mice; experiment: Suppression of EAE induced by PLP 139-151 peptide; format: in vivo; details: for Maximum mean score: clinical scale 1-5; for Incidence (mice with clinical signs of EAE / total immunized mice): Example 10: SJL/J mice co-injected with 50 μg PLP 139-151 and 500 μg copolymer, observed 70 days
Procedure: as §2
To find out whether random copolymers provided herein might affect development of chronic-relapsing EAE, mice were injected subcutaneously with 50 μg of PLP 139-151 (SEQ ID NO: 4; the encephalitogenic epitope in the SJL/J strain) alone, or with 50 μg of PLP 139-151 (SEQ ID NO: 4) and 500 μg of the copolymer. Mice were examined on a daily basis for 90 days after the induction of the disease.
In vivo experiments were carried out to determine whether the Y- and F-containing 50-mer random copolymers would affect the clinical course of EAE in SJL/J mice. As in Examples above, the protocol for co-immunization was subcutaneous injection of SJL/J mice with, in this example, the encephalitogenic epitope PLP 139-151 (SEQ ID NO: 4; 50 μg) and a copolymer preparation (500 μg). Following disease induction, mice were observed daily for appearance of typical signs of EAE, during a period of 70 days.

[6] = tested on: EAE induced by MBP 85-99 in humanized mice carrying HLA DR-2 and TCR transgenes; experiment: Suppression of EAE induced by MBP 85-99 in humanized mice; format: in vivo; details: for Clinical score (severity of symptoms): 50 days
Source text: Mouse strains. SJL/J (H-2^s) mice (8-12 weeks of age) were purchased from Jackson Laboratories (Bar Harbor, Me.) and were maintained in the animal facility at Harvard University according to the Guidelines of the Committee on Animals of Harvard University and the Committee on Care and Use of Laboratory Animal Resources, National Research Counsel (Department of Health and Human Services Publication 85-23, revised 1987).
Experimental animals were humanized mice carrying transgenes HLA DR-2 (DRA* 0101 and DRB1* 1501) and TCR from MS patient […], which is a V(D)J rearrangement of TCRα and TCRβ, amplified from clone Ob.1A12. Mice in each group were injected with MBP 85-99 (SEQ ID NO: 2) subcutaneously to induce EAE. […] Clinical symptoms were monitored over a course of 50 days on days indicated.

[7] = tested on: H-2s-restricted PLP 139-151-specific T cell hybridoma hPLP/c4; details: SJL/J splenocytes, PLP 139-151 24 μM, copolymer 28 μM (FIG. 2C)
MS patients = details: cited from earlier work
[8] = SJL/J mice, 500 μg WSCH + 500 μg copolymer
[9] = Example 10: 50 μg PLP 139-151 + 500 μg copolymer
[10] = Example 10: 50 μg PLP 139-151 + 500 μg copolymer, listed as Copaxone®

Inhibition of binding of biotinylated MBP 86-100 to HLA-DR-2 molecules (HLA-DR-2 molecules): inhibited most efficiently
Substance: ENPVVHFFKNIVTPR [MBP 85-99]

Substance: Glatiramer acetate [Copaxone ®]
Inhibition of binding of biotinylated MBP 86-100 to HLA-DR-2 molecules (HLA-DR-2 molecules): inhibited most efficiently
Inhibition of proliferation of the 2E12 T cell clone [1]: efficient
Inhibition of the Hy1B clone [2]: best inhibitor
Inhibition of proliferation of hPLP/1 hybridoma [3]: best inhibited
Incidence (mice with clinical signs of EAE / total immunized mice) [4]: 1/14
Incidence (mice with clinical signs of EAE / total immunized mice) ([4]; listed as Copaxone®): One out of fourteen
Mean day of onset [4, 8]: 20.0 days
Percent disease [4, 8]: 7%
Percent mortality [4, 8]: 0%
Maximum mean score ([4]; SJL/J mice, 500 μg WSCH + 500 μg copolymer, clinical scale 1-5): 3.0
Mean day of onset ([4]; SJL/J mice, 500 μg WSCH + 500 μg copolymer, listed as Copaxone®): 20 days
Effect on course of EAE induced by WSCH (in words) ([4]; co-immunization, 500 μg copolymer): suppressed EAE
Day of first attack ([5]; Example 6): 26 days
Day of peak of first attack ([5]; Example 6): 34 days
Mean maximal score ([5]; Example 6): 1.25
Mortality ([5]; Example 6: 50 μg PLP 139-151 + 500 μg copolymer, 90 days): 12%
Mice with clinical signs of EAE out of group ([5]; Example 6: 50 μg PLP 139-151 + 500 μg copolymer, observed 90 days): two out of eight
Mean day of onset [5, 9]: 22.7 ± 7.1 days
Percent disease [5, 9]: 75%
Percent mortality [5, 9]: 6%
Maximum mean score [5, 9]: 2.6 ± 1.6
Maximum mean score [5, 10]: 2.6
Mean day of onset [5, 10]: 22 days
Incidence (mice with clinical signs of EAE / total immunized mice) [5]: 12/16
Incidence (mice with clinical signs of EAE / total immunized mice) ([5]; listed as Copaxone®): 12 of 16
Number of time points with symptoms ([6]; co-immunized): nine
Clinical score (severity of symptoms) ([6]; co-immunized on day 0 with 500 μg copolymer and 50 μg MBP 85-99): 2 to 3
Number of time points with symptoms ([6]; pre-immunized): 14 time points
Stable level of symptoms (severity) ([6]; pre-immunized): greater than 1
Clinical score (severity of symptoms) ([6]; pre-immunized two days prior to EAE induction): greater than 3
Inhibition of hPLP/c4 hybridoma [7]: best inhibited
Reduction of frequency of relapse (MS patients): about 30%
Toxicity (MS patients; wide use): little or no toxicity
